{
  "source": "patent US8642801B2",
  "about": "(BHI Limited Partnership, priority 2003, dated 2014)",
  "data": [
    {"target": "T1, NAC peptide (Homo sapiens, UniProt P37840)", "T1 construct": "NAC is a 35 amino acid long peptide with highly hydrophobic stretches", "experiment": "Binding to NAC peptide by electrospray mass spectrometry", "conditions": "5:1 ratio (20 μM NAC: 100 μM test compound or 40 μM NAC: 200 μM test compound), 6.6% EtOH, pH 7.4; bound complex peak area / unbound NAC peak area", "experimental": "The ability of the compounds of the present invention to bind to NAC peptide in aqueous solution was evaluated. The binding ability correlates to the intensities of the peptide-compound complex peaks observed by the Electrospray Mass Spectrum. Millipore distilled deionized water was used to prepare all aqueous solutions. For pH determination a Beckman Φ36 pH meter fitted with a Corning Semi-Micro Combination pH Electrode was employed.\nThe optimal cone voltage was determined to be 20V.\nMass spectrometry—Mass spectrometric analysis was performed using a Waters ZQ 4000 mass spectrometer equipped with a Waters 2795 sample manager. MassLynx 4.0 (earlier by MassLynx 3.5) was used for data processing and analysis. Test compounds were mixed with disaggregated peptides in aqueous media (6.6% EtOH) at a 5:1 ratio (20 μM NAC: 100 μM of test compound or 40 μM NAC:200 μM of test compound). The pH of the mixture was adjusted to 7.4 (±0.2) using 0.1% NaOH (3-5 μL). Periodically, NAC peptide solution at 20 μM or 40 μM was also prepared in the same fashion and run as control. The spectra were obtained by introducing the solutions to the electrospray source by direct infusion using a syringe pump at a flow rate of 25 μl/min, and scanning from 100 to 2100 Da in the positive mode. The scan time was 0.9 sec per scan with an inter-scan delay of 0.1 sec and the run time was 5 min for each sample. All the mass spectra were sum of 300 scans. The desolvation and source temperature was 70° C. and the cone and capillary voltage were maintained at 20 V and 3.2 kV respectively.\nThe total area under the peaks for the bound NAC-compound complex divided by total area under the peaks for unbound NAC was determined for each compound tested.", "values": [
      {"smiles": "O=S(=O)(O)CC(O)CNC1CCCCC1", "note": "(stereo not drawn) [drawing 490]", "NAC peptide Binding Strength": "+++ (+++ = Strong; when the total binding is 120% and higher)"},
      {"smiles": "CC(C)(C)NCCCS(=O)(=O)O", "note": "[drawing 487]", "NAC peptide Binding Strength": "++ (++ = Moderate; when the total binding is between 120% and 70%)"},
      {"smiles": "O=S(=O)([O-])CCCCS(=O)(=O)[O-].[Na+].[Na+]", "note": "[NaO3SCH2(CH2)2CH2SO3Na]", "NAC peptide Binding Strength": "− (− = None; when the total binding is between 30% and 0%)"},
      {"smiles": "O=S(=O)([O-])OCCCOS(=O)(=O)[O-].[Na+].[Na+]", "note": "[NaO3SOCH2CH2CH2OSO3Na]", "NAC peptide Binding Strength": "− (− = None; when the total binding is between 30% and 0%)"},
      {"smiles": "NCCCOS(=O)(=O)[O-].[Na+]", "note": "[H2NCH2CH2CH2OSO3Na]", "NAC peptide Binding Strength": "++ (++ = Moderate; when the total binding is between 120% and 70%)"},
      {"smiles": "NCCS(=O)(=O)O", "note": "[H2NCH2CH2SO3H]", "NAC peptide Binding Strength": "+ (+ = Weak; when the total binding is between 70% and 30%)"},
      {"smiles": "NCCCCS(=O)(=O)O", "NAC peptide Binding Strength": "+ (+ = Weak; when the total binding is between 70% and 30%)"},
      {"smiles": "NCCOS(=O)(=O)O", "note": "[NH2CH2CH2OSO3H]", "NAC peptide Binding Strength": "− (− = None; when the total binding is between 30% and 0%)"},
      {"smiles": "O=S(=O)(O)CCCNC1C2CC3CC(C2)CC1C3", "note": "(stereo not drawn) [drawing 488]", "NAC peptide Binding Strength": "++ (++ = Moderate; when the total binding is between 120% and 70%)"}
    ]}
  ]
}
